Assay results reported in US6362369B1, “Phthalic acid diamide derivatives fluorine-containing aniline compounds as starting material, agricultural and horticultural insecticides, and a method for application of the insecticides” (Nihon Nohyaku Co., Ltd., priority 1997, dated 2002).

What was measured:
Type in all cases: in vivo
[1] = test system: rice leafroller (Cnaphalocrocis medinalis); test: Insecticidal effect on rice leafroller (Test Example 3); conditions: 500 ppm, 25° C., humidity 70%; for Insecticidal effect, Test Example 3: rice lamina immersed; for Insecticidal effect, Test Example 3 / Insecticidal effect on rice leafroller (Test Example 3), judged grade: four days after inoculation; for Insecticidal effect on rice leafroller (Test Example 3), judged grade / Insecticidal effect (Test Example 3), judged from mortality: rice lamina dip; for Insecticidal effect on rice leafroller (Test Example 3), judged grade: third-instar larvae; for Insecticidal effect (Test Example 3), judged from mortality: 4 days after inoculation
Outline: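 Groups of 10 third-instar larvae, in triplicate, are placed on air-dried lamina resting on wet filter paper. Incubation runs four days at 25° C with 70% humidity before survivors and dead are tallied.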

[2] = test system: diamondback moth (Plutella xylostella); test: Insecticidal effect on diamondback moth (Test Example 1); conditions: for Insecticidal effect, Test Example 1 / Insecticidal effect (Test Example 1), judged from mortality: diamondback moth; for Insecticidal effect on diamondback moth (Test Example 1), judged grade: mortality judged according to the criterion shown in Test Example 1; for Insecticidal effect (Test Example 1), judged from mortality: judged by the criterion of Test Example 1
Outline: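 Read-out was mortality from hatched-insect counts taken 6 days after the egg-bearing cabbage seedling was immersed, graded by set criteria. Seedlings were air-dried and kept at 25° C after treatment. Groups of 10 insects, in triplicate.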

[3] = test system: common cutworm (Spodoptera Litura); test: Insecticidal effect on common cutworm (Test Example 2); conditions: 500 ppm, 25° C.; for Insecticidal effect, Test Example 2: cabbage leaf immersed; for Insecticidal effect, Test Example 2 / Insecticidal effect on common cutworm (Test Example 2), judged grade: eight days after inoculation; for Insecticidal effect on common cutworm (Test Example 2), judged grade / Insecticidal effect (Test Example 2), judged from mortality: cabbage leaf dip; for Insecticidal effect on common cutworm (Test Example 2), judged grade: second-instar larvae; for Insecticidal effect (Test Example 2), judged from mortality: 8 days after inoculation
Outline: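 Air-dried treated material was placed in a closed dish with second-instar larvae and held at 25° C. Dead and live insects were counted eight days after inoculation, and mortality was calculated and scored against a fixed insecticidal-effect criterion. Three replicate groups of 10 insects were used.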

[4] = third-instar larvae of rice leafroller
[5] = judged by the mortality criterion of Test Example 1
[6] = second-instar larvae of common cutworm
[7] = rice leafroller third-instar larvae
[8] = mortality judged by criterion of Test Example 1
[9] = common cutworm second-instar larvae

Cc1cc(C(F)(C(F)(F)F)C(F)(F)F)ccc1NC(=O)c1cccc(I)c1C(=O)NC(C)C [compound 374]
Insecticidal effect, Test Example 3 [1, 4]: A (100)
Insecticidal effect, Test Example 1 [2, 5]: A (100)
Insecticidal effect, Test Example 2 [3, 6]: A (100)

Cc1cc(OCC(F)(F)C(F)F)ccc1NC(=O)c1c(I)cccc1C(=O)NC(C)C [compound 447]
Insecticidal effect on rice leafroller (Test Example 3), judged grade [1]: C (89-80)
Insecticidal effect on diamondback moth (Test Example 1), judged grade [2]: A (100)
Insecticidal effect on common cutworm (Test Example 2), judged grade [3]: B (99-90)

Cc1cc(C(F)(F)C(F)(F)F)ccc1NC(=O)c1cccc(Cl)c1C(=O)NC(C)CF (stereo not drawn) [compound 1651]
Insecticidal effect (Test Example 3), judged from mortality [1, 4]: A (100)
Insecticidal effect (Test Example 1), judged from mortality [2]: A (100)
Insecticidal effect (Test Example 2), judged from mortality [3, 6]: A (100)

Cc1cc(Sc2ccc(Cl)cc2)ccc1NC(=O)c1ccccc1C(=O)NC(C)C [compound 77]
Insecticidal effect, Test Example 3 [1, 4]: A (100)
Insecticidal effect, Test Example 1 [2, 5]: A (100)
Insecticidal effect, Test Example 2 [3, 6]: C (89-80)

Cc1cc(I)ccc1NC(=O)c1cccc(F)c1C(=O)NC(C)C [compound 492]
Insecticidal effect on rice leafroller (Test Example 3), judged grade [1]: A (100)
Insecticidal effect on diamondback moth (Test Example 1), judged grade [2]: A (100)
Insecticidal effect on common cutworm (Test Example 2), judged grade [3]: A (100)

Cc1cc(C(F)(F)C(F)(F)F)ccc1NC(=O)c1cccc(Cl)c1C(=O)NC(C)c1cccc(Cl)c1 (stereo not drawn) [compound 1364]
Insecticidal effect, Test Example 3 [1, 7]: A (100)
Insecticidal effect, Test Example 1 [2, 8]: A (100)
Insecticidal effect, Test Example 2 [3, 9]: A (100)

CC(C)NC(=O)c1cccc(F)c1C(=O)Nc1ccc(OC(F)F)cc1C(F)(F)F [compound 579]
Insecticidal effect on rice leafroller (Test Example 3), judged grade [1]: A (100)
Insecticidal effect on diamondback moth (Test Example 1), judged grade [2]: A (100)
Insecticidal effect on common cutworm (Test Example 2), judged grade [3]: A (100)

Cc1cc(Cl)ccc1NC(=O)c1cccc(Cl)c1C(=O)NC(C)C [compound 119]
Insecticidal effect, Test Example 3 [1, 4]: A (100)
Insecticidal effect, Test Example 1 [2, 5]: A (100)
Insecticidal effect, Test Example 2 [3, 6]: A (100)

Cc1cc(OC(F)(F)C(F)OC(F)(F)F)ccc1NC(=O)c1cccc(I)c1C(=O)NC(C)C (stereo not drawn) [compound 395]
Insecticidal effect, Test Example 3 [1, 4]: A (100)
Insecticidal effect, Test Example 1 [2, 5]: A (100)
Insecticidal effect, Test Example 2 [3, 6]: A (100)

CC(C)NC(=O)c1c(Cl)cccc1C(=O)Nc1ccc(C(O)(C(F)(F)F)C(F)(F)F)cc1 [compound 980]
Insecticidal effect, Test Example 3 [1, 7]: A (100)
Insecticidal effect, Test Example 1 [2, 8]: A (100)
Insecticidal effect, Test Example 2 [3, 9]: A (100)

Cc1cc(OC(F)(F)C(F)F)ccc1NC(=O)c1ccccc1C(=O)NC(C)(C)C [compound 1060]
Insecticidal effect, Test Example 3 [1, 7]: A (100)
Insecticidal effect, Test Example 1 [2, 8]: A (100)
Insecticidal effect, Test Example 2 [3, 9]: A (100)

Cc1cc(C(F)(F)C(F)(F)F)ccc1NC(=O)c1cccc(Cl)c1C(=O)NCc1ccccc1F [compound 1468]
Insecticidal effect (Test Example 3), judged from mortality [1, 4]: A (100)
Insecticidal effect (Test Example 1), judged from mortality [2]: A (100)
Insecticidal effect (Test Example 2), judged from mortality [3, 6]: C (89-80)

Cc1cc(C(F)(F)F)ccc1NC(=O)c1c(Cl)cccc1C(=O)NC(C)C [compound 221]
Insecticidal effect, Test Example 3 [1, 4]: A (100)
Insecticidal effect, Test Example 1 [2, 5]: A (100)
Insecticidal effect, Test Example 2 [3, 6]: A (100)

CC(C)NC(=O)c1c(Cl)cccc1C(=O)Nc1ccc(C(F)(F)C(F)(F)C(F)(F)F)cc1F [compound 1494]
Insecticidal effect (Test Example 3), judged from mortality [1, 4]: A (100)
Insecticidal effect (Test Example 1), judged from mortality [2]: A (100)
Insecticidal effect (Test Example 2), judged from mortality [3, 6]: A (100)

CCC(C)NC(=O)c1c(I)cccc1C(=O)Nc1ccc(OC(F)F)cc1C (stereo not drawn) [compound 1454]
Insecticidal effect (Test Example 3), judged from mortality [1, 4]: A (100)
Insecticidal effect (Test Example 1), judged from mortality [2]: A (100)
Insecticidal effect (Test Example 2), judged from mortality [3, 6]: A (100)

Cc1cc(SC(F)(F)C(F)(F)F)ccc1NC(=O)c1cccc(I)c1C(=O)NC(C)C [compound 909]
Insecticidal effect on rice leafroller (Test Example 3), judged grade [1]: A (100)
Insecticidal effect on diamondback moth (Test Example 1), judged grade [2]: A (100)
Insecticidal effect on common cutworm (Test Example 2), judged grade [3]: A (100)

CC(C)(C)NC(=O)c1ccccc1C(=O)Nc1ccc(OC(F)(F)F)cc1 [compound 929]
Insecticidal effect on rice leafroller (Test Example 3), judged grade [1]: A (100)
Insecticidal effect on diamondback moth (Test Example 1), judged grade [2]: A (100)
Insecticidal effect on common cutworm (Test Example 2), judged grade [3]: A (100)

CC(C)(C)NC(=O)c1c(I)cccc1C(=O)Nc1ccc(C(F)(F)C(F)(F)C(F)(F)F)cc1F [compound 1504]
Insecticidal effect (Test Example 3), judged from mortality [1, 4]: A (100)
Insecticidal effect (Test Example 1), judged from mortality [2]: A (100)
Insecticidal effect (Test Example 2), judged from mortality [3, 6]: A (100)

CC(C)(C)NC(=O)c1c(I)cccc1C(=O)Nc1ccc2oc(C(F)(F)C(F)(F)C(F)(F)F)nc2c1 [compound 1639]
Insecticidal effect (Test Example 3), judged from mortality [1, 4]: A (100)
Insecticidal effect (Test Example 1), judged from mortality [2]: A (100)
Insecticidal effect (Test Example 2), judged from mortality [3, 6]: A (100)

Cc1cc(C(F)(F)C(F)(F)F)ccc1NC(=O)c1cccc(I)c1C(=O)N1CCOCC1 [compound 1070]
Insecticidal effect, Test Example 3 [1, 7]: A (100)
Insecticidal effect, Test Example 1 [2, 8]: A (100)
Insecticidal effect, Test Example 2 [3, 9]: A (100)

CC(C)NC(=O)c1c(F)cccc1C(=O)Nc1ccc(C(F)(C(F)(F)F)C(F)(F)F)cc1 [compound 474]
Insecticidal effect on rice leafroller (Test Example 3), judged grade [1]: A (100)
Insecticidal effect on diamondback moth (Test Example 1), judged grade [2]: A (100)
Insecticidal effect on common cutworm (Test Example 2), judged grade [3]: B (99-90)

CC(C)NC(=O)c1c(F)cccc1C(=O)Nc1ccc(C(F)(F)C(F)(F)C(F)(F)F)cc1 [compound 473]
Insecticidal effect on rice leafroller (Test Example 3), judged grade [1]: A (100)
Insecticidal effect on diamondback moth (Test Example 1), judged grade [2]: A (100)
Insecticidal effect on common cutworm (Test Example 2), judged grade [3]: A (100)

CCC(C)NC(=O)c1c(I)cccc1C(=O)Nc1ccc(C(F)(F)C(F)(F)F)cc1F (stereo not drawn) [compound 1472]
Insecticidal effect (Test Example 3), judged from mortality [1, 4]: A (100)
Insecticidal effect (Test Example 1), judged from mortality [2]: A (100)
Insecticidal effect (Test Example 2), judged from mortality [3, 6]: A (100)

Cc1cc(Cl)ccc1NC(=O)c1cccc(Cl)c1C(=O)NC(C)(C)C [compound 937]
Insecticidal effect on rice leafroller (Test Example 3), judged grade [1]: A (100)
Insecticidal effect on diamondback moth (Test Example 1), judged grade [2]: A (100)
Insecticidal effect on common cutworm (Test Example 2), judged grade [3]: A (100)

COc1ccc(NC(=O)c2cccc([N+](=O)[O-])c2C(=O)NC(C)C)c(C)c1C [compound 689]
Insecticidal effect on rice leafroller (Test Example 3), judged grade [1]: A (100)
Insecticidal effect on diamondback moth (Test Example 1), judged grade [2]: A (100)
Insecticidal effect on common cutworm (Test Example 2), judged grade [3]: D (79-50)

Cc1cc(OC(F)(F)C(F)OC(F)(F)F)ccc1NC(=O)c1c(I)cccc1C(=O)NC(C)C (stereo not drawn) [compound 457]
Insecticidal effect on rice leafroller (Test Example 3), judged grade [1]: B (99-90)
Insecticidal effect on diamondback moth (Test Example 1), judged grade [2]: A (100)
Insecticidal effect on common cutworm (Test Example 2), judged grade [3]: A (100)

COc1ccc(NC(=O)c2cccc(Br)c2C(=O)NC(C)C)c(C)c1C [compound 285]
Insecticidal effect, Test Example 3 [1, 4]: A (100)
Insecticidal effect, Test Example 1 [2, 5]: A (100)
Insecticidal effect, Test Example 2 [3, 6]: D (79-50)

Cc1cc(OC(F)(F)C(F)(Br)C(F)(F)F)ccc1NC(=O)c1ccccc1C(=O)NC(C)C (stereo not drawn) [compound 66]
Insecticidal effect, Test Example 3 [1, 4]: B (99-90)
Insecticidal effect, Test Example 1 [2, 5]: A (100)
Insecticidal effect, Test Example 2 [3, 6]: A (100)
